In brackets after ≈: the same amount, converted by molar mass.
Legend:
Ehrlich carcinoma = assay: Antitumor effect, survival of tumor-inoculated mice; format: in vivo, ICR mice; conditions: intraperitoneally, once a day for 10 days
[1] = test system: Piricularia oryzae IAM 5016; assay: microbe, parasite or virus in culture; format: cell-based; conditions: 120 h; read-out: Minimum inhibitory concentration MIC
[2] = test system: Staphylococcus epidermidis ATCC 12228; assay: MIC, antibacterial activity (agar culture); format: cell-based; conditions: ATCC12228, 37° C., 18-20 hours, Mueller-Hinton agar, read-out: Minimum inhibitory concentration MIC
mouse leukemia P-388 = assay: Antitumor effect, survival of tumor-inoculated mice; format: in vivo, CDF1 mice; conditions: intraperitoneally, once a day for 10 days
Experimental: (§1) Antitumor effects of some Fredericamycin A derivatives against Ehrlich carcinoma, Meth-A fibrosarcoma and mouse leukemia P-388 were tested in accordance with the following procedures. Antitumor effects against Ehrlich carcinoma and Meth-A fibrosarcoma are expressed by percentage of mean survival time of test and control animals. Antitumor effects against P-388 are expressed by percentage of median survival time of test and control animals.
(§2) (ii) Meth-A fibrosarcoma and mouse leukemia P-388:
(§3) 1×10^6 tumor cells were inoculated to CDF1 mice (.male., Charles River Japan Inc.) intraperitoneally. Each tested compound was given intraperitoneally once a day for 10 days from 1 day after tumor inoculation.

Meth-A fibrosarcoma = assay: as above; format: in vivo, CDF1 mice; conditions: intraperitoneally, once a day for 10 days
Experimental: as §1, §2, §3

[3] = Mus musculus, ip, 240 h, 0.5 mg/kg/day, read-out: percentage of mean survival time of test and control animals
[4] = Mus musculus, ip, 240 h, 1.0 mg/kg/day, read-out: percentage of mean survival time of test and control animals
[5] = Mus musculus, ip, 240 h, 2.0 mg/kg/day, read-out: percentage of mean survival time of test and control animals

For `C/C=C/C=C/c1cc2cc3c(c(O)c2c(=O)[nH]1)C1(CC3)C(=O)c2c(OC(=O)c3ccccc3)c3c(c(OC(=O)c4ccccc4)c2C1=O)C(=O)C(OC)=CC3=O` (stereo not drawn) [Compound 8], the response vs control in vivo at 0.5 mg/kg/day (Ehrlich carcinoma; [3]) was 166%, the response vs control in vivo at 1 mg/kg/day (Ehrlich carcinoma; [4]) was > 199% and the response vs control in vivo at 2 mg/kg/day (Ehrlich carcinoma; [5]) was 97%.

In the case of `C/C=C/C=C/c1cc2cc3c(c(O)c2c(=O)[nH]1)C1(CC3)C(=O)c2c(OC(=O)c3ccc(C)cc3)c3c(c(OC(=O)c4ccc(C)cc4)c2C1=O)C(=O)C(OC)=CC3=O` (stereo not drawn) [Compound 3, Fredericamycin A di-p-methylbenzoate], the MIC [1] is reported as 6.25 µg/mL (≈ 8.06 µM) and the MIC [2] is reported as 25 µg/mL (≈ 32.2 µM).

`C/C=C/C=C/c1cc2cc3c(c(O)c2c(=O)[nH]1)C1(CC3)C(=O)c2c(OC(=O)CC)c3c(c(OC(=O)CC)c2C1=O)C(=O)C(OC)=CC3=O` (stereo not drawn) [Compound 4] was tested, and the “percentage of mean survival time of test and control animals” value (Ehrlich carcinoma; 0.5 mg/kg/day) was “over 282%”, the “percentage of mean survival time of test and control animals” value (Ehrlich carcinoma; 1.0 mg/kg/day) was “over 288%” and the “percentage of mean survival time of test and control animals” value (Ehrlich carcinoma; 2.0 mg/kg/day) was 50%.

With `C/C=C/C=C/c1cc2cc3c(c(O)c2c(=O)[nH]1)C1(CC3)C(=O)c2c(OC(=O)c3ccc(Cl)cc3)c3c(c(OC(=O)c4ccc(Cl)cc4)c2C1=O)C(=O)C(OC)=CC3=O` (stereo not drawn) [Compound 11] the response vs control in vivo at 0.5 mg/kg/day (Ehrlich carcinoma; [3]) was > 139%, the response vs control in vivo at 1 mg/kg/day (Ehrlich carcinoma; [4]) was > 198% and the response vs control in vivo at 2 mg/kg/day (Ehrlich carcinoma; [5]) was > 260%.

With `CCCCCc1cc2cc3c(c(O)c2c(=O)[nH]1)C1(CC3)C(=O)c2c(O)c3c(c(O)c2C1=O)C(=O)C(OC)=CC3=O` (stereo not drawn) [Compound 17, tetrahydrofredericamycin A] the response vs control in vivo at 0.125 mg/kg/day (Ehrlich carcinoma; Mus musculus, ip, 240 h, 0.125 mg/kg/day, read-out: percentage of mean survival time of test and control animals) was 187%, the response vs control in vivo at 0.25 mg/kg/day (Ehrlich carcinoma; Mus musculus, ip, 240 h, 0.25 mg/kg/day, read-out: percentage of mean survival time of test and control animals) was 248% and the response vs control in vivo at 0.5 mg/kg/day (Ehrlich carcinoma; [3]) was 250%. The “percentage of median survival time of test and control animals” value (mouse leukemia P-388; 2.0 mg/kg/day) was 130%, the “percentage of median survival time of test and control animals” value (mouse leukemia P-388; 4.0 mg/kg/day) was 143% and the “percentage of median survival time of test and control animals” value (mouse leukemia P-388; 8.0 mg/kg/day) was 152%. For the same compound, the “percentage of mean survival time of test and control animals” value (Meth-A fibrosarcoma; 0.25 mg/kg/day) was 102%, the “percentage of mean survival time of test and control animals” value (Meth-A fibrosarcoma; 0.5 mg/kg/day) was 129% and the “percentage of mean survival time of test and control animals” value (Meth-A fibrosarcoma; 1.0 mg/kg/day) was 164%. The “percentage of mean survival time of test and control animals” value (Meth-A fibrosarcoma; 2.0 mg/kg/day) was 232%.

For `C/C=C/C=C/c1cc2cc3c(c(O)c2c(=O)[nH]1)C1(CC3)C(=O)c2c(OC(=O)CC(C)C)c3c(c(OC(=O)CC(C)C)c2C1=O)C(=O)C(OC)=CC3=O` (stereo not drawn) [Compound 2, Fredericamycin A diisovalerate], the response vs control in vivo at 0.5 mg/kg/day (Ehrlich carcinoma; [3]) was 120%, the response vs control in vivo at 1 mg/kg/day (Ehrlich carcinoma; [4]) was > 168% and the response vs control in vivo at 2 mg/kg/day (Ehrlich carcinoma; [5]) was > 229%.

— patent US4584377A, “Novel Fredericamycin A derivatives” (SS Pharmaceutical Co., Ltd., priority 1983, dated 1986)
